Values of other authors as cited in US7958848B2, “Method for artificial breeding of farmed sturgeon” (priority 2009, dated 2011).

Tested on: goldfish
Settings: 1-5 mg/kg body weight in combination with pituitary gland

SMILES: O=c1[nH]c2ccccc2n1CCCN1CCC(n2c(=O)[nH]c3cc(Cl)ccc32)CC1 [Domperidone]
- Induction of spawning and gonadal development: induced spawning and gonadal development
